Reference: PMC12136037, “Type II kinase inhibitors that target Parkinson’s disease–associated LRRK2” (Science Advances, 2025)
Values joined by “and” are separate entries in the source; they are usually repeats but may differ in a detail not shown here. Equal values may be shown once. Each block holds one compound with its values, some of them ahead of it.

Experiments:
LRRK2^RCKW = target: T1, LRRK2^RCKW (Homo sapiens, UniProt Q5S007); assay: MS-based activity assay, Rab8a phosphorylation (pT72); assay type: biochemical; details: for % phosphorylation: Rab8a; for % phosphorylation / Normalized: single runs; for LRRK2RCKW activity (% control): mean of n=3; for IC50: mass spectrometry, 1 mM ATP, 4 h, read-out: IC50, LRRK2^RCKW-mediated phosphorylation of Rab8a; for Normalized: normalized % phosphorylation of Rab8a
T1 construct: LRRK2 R1327 to E2527; His6-Z-tag (TEV cleavable) (N, cleaved yes); host or cells: Sf9 insect cells (baculovirus)
T1 sequence (Q5S007 1327-2527): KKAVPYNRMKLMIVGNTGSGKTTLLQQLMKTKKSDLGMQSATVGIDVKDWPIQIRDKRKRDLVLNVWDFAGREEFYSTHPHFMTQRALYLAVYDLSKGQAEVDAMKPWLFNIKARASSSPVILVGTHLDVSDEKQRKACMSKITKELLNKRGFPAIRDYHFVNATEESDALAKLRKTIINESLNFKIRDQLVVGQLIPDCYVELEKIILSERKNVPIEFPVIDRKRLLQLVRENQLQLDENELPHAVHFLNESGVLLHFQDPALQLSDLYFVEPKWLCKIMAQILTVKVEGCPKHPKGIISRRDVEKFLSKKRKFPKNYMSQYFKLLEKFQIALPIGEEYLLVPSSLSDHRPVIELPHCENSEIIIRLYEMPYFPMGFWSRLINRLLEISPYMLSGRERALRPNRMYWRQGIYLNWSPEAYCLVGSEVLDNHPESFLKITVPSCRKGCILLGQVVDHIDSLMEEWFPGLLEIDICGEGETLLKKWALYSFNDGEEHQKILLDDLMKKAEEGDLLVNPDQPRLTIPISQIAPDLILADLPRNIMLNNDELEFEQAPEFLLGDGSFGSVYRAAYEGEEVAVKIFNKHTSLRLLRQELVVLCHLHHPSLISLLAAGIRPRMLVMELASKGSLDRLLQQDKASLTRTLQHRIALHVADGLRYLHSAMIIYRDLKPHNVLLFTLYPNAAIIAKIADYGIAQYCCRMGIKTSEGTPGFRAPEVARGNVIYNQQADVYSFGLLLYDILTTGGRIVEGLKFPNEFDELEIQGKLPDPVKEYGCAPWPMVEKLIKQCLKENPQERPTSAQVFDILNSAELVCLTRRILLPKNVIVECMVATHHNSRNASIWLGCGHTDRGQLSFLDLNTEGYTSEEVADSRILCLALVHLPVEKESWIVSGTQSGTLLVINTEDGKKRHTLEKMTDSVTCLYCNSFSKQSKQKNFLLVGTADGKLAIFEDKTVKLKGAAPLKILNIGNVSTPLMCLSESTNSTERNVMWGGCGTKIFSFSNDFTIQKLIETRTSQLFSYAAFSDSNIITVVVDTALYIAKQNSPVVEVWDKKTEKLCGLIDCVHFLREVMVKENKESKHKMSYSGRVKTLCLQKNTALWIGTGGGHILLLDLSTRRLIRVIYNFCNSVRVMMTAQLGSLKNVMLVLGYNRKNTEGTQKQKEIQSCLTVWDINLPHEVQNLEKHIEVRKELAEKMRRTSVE
Experimental: To determine IC50 values for selected inhibitors, activity assay was performed using LRRK2^RCKW and Rab8A substrate (table S4). LRRK2^RCKW (20 nM) was incubated with 5 μM substrate and a concentration series of the respective inhibitor in 20 mM Hepes (pH 7.4), 100 mM NaCl, 0.5 mM TCEP, 0.5% glycerol, 20 μM GDP, and 2.5 mM MgCl2. The reaction was started by adding 1 mM ATP and incubated at room temperature for 4 hours. The phosphorylation reaction was stopped by addition of MS buffer (0.1% formic acid in water). Reaction mix (5 μl) was injected into an Agilent 6230 electrospray ionization time-of-flight mass spectrometer coupled to a 1260 Infinity liquid chromatography unit (flow rate at 0.4 ml/min using a solvent gradient of water to acetonitrile with 0.1% formic acid). Data were acquired using the MassHunter LC/MS Data Acquisition software and analyzed using the BioConfirm vB.08.00 tool (both Agilent Technology, www.agilent.com/en/product/software-informatics/mass-spectrometry-software, RRID: SCR_016657).
Peak intensities of unphosphorylated and phosphorylated Rab8A were quantified, and the relative kinase activity was calculated as a ratio. To determine the IC50, a nonlinear regression with variable slope was fitted to the datapoints with GraphPad Prism (www.graphpad.com/, RRID:SCR_002798). (For step-by-step protocol, see dx.doi.org/10.17504/protocols.io.6qpvr385ovmk/v2.)

350 wild-type kinases = target: T2, 350 wild-type kinases (Homo sapiens, UniProt P49759); assay: 33PanQinase kinome-wide selectivity profile (Reaction Biology); assay type: biochemical; details: kinase CLK1, ATP 0,3 µM, singlicate
T2 construct: purchased Reaction Biology (assay service)
T2 sequence (P49759 whole entry): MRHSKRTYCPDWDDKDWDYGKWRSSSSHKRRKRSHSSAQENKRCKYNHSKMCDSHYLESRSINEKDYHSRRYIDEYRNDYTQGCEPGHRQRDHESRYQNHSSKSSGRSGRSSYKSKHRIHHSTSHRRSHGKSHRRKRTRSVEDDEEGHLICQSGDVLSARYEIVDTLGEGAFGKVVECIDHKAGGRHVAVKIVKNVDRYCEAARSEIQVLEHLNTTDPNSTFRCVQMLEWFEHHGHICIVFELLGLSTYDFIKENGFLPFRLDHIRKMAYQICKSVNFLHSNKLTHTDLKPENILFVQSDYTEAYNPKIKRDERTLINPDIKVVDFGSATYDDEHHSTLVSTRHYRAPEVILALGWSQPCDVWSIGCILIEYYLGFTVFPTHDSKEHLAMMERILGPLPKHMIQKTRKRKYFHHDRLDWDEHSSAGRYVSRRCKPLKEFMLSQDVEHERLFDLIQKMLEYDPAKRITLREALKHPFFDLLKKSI
Experimental: Compound RN341 was tested at two concentrations of 1 and 10 μM against a panel of 350 wild-type kinases in the ^33PanQinase assay. The assay was performed by Reaction Biology (www.reactionbiology.com/services/kinase-assays/kinase-panel-screening/).

[1] = target: T3, ~100 representative kinases (Homo sapiens, UniProt Q9UK32); assay: DSF 100 kinase selectivity screen; assay type: binding; details: Protein RPS6KA6; DSF; average of three replicates;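 also: compound tested at 20 µM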
T3 construct: Recombinant protein kinase domains with a concentration of 2 μM
T3 sequence (Q9UK32 whole entry, the tested form may be a part): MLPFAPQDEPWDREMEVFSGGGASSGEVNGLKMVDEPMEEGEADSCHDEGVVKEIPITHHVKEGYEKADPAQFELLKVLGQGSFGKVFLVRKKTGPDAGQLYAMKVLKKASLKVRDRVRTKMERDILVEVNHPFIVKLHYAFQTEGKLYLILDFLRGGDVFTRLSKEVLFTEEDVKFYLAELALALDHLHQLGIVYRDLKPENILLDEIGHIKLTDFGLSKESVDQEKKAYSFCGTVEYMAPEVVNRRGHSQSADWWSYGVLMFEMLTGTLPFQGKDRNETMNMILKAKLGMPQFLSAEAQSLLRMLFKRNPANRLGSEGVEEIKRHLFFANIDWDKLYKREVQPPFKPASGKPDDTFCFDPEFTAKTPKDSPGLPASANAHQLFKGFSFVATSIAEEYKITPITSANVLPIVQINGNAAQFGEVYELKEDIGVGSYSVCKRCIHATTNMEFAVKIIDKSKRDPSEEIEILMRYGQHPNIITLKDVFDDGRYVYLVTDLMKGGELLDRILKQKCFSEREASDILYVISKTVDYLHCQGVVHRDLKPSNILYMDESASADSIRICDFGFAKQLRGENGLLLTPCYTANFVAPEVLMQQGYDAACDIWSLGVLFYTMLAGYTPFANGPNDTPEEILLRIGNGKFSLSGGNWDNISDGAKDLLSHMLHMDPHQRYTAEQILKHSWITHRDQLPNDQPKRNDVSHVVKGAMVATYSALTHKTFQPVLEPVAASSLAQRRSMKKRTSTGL
Summary of the method: (§1)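 Each kinase domain, at 2 μM, is mixed with 20 μM test compound and SYPRO Orange in Hepes (20 mM, pH 7.5) with 500 mM NaCl. Temperature is then raised at 3°C/min and fluorescence-monitored unfolding yields the melting temperature change, ΔTm in degrees Celsius.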

[2] = target: T4, ~100 representative kinases (Homo sapiens, UniProt Q9BVS4); assay: DSF 100 kinase selectivity screen; assay type: binding; details: Protein RIOK2; DSF; average of three replicates;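 also: compound tested at 20 µM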
T4 construct: Recombinant protein kinase domains with a concentration of 2 μM
T4 sequence (Q9BVS4 whole entry, the tested form may be a part): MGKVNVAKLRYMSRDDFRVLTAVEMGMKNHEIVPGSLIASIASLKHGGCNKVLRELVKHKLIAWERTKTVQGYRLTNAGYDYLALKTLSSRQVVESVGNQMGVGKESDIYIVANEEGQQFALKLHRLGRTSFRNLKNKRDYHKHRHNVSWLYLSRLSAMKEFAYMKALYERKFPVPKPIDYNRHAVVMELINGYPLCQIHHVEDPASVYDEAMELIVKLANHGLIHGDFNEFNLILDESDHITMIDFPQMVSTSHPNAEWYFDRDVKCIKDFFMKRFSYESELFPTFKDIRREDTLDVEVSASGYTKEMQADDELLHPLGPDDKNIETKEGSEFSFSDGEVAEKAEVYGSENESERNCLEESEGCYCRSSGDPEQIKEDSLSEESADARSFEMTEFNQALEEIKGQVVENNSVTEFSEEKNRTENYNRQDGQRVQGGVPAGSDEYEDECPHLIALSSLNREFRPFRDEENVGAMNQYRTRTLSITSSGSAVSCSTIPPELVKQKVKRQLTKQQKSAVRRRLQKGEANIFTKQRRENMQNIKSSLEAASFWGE
Summary of the method: as §1

[3] = inhibitor 0.21 (0.212), listed as RN277
[4] = inhibitor 0.64 (0.635), listed as RN277
[5] = inhibitor 1.91 (2), listed as RN277
[6] = inhibitor 5.72 (6), listed as RN277
[7] = inhibitor 17.15 (17), listed as RN277
[8] = inhibitor 51.44 (51), listed as RN277
[9] = inhibitor 154.32 (154), listed as RN277
[10] = inhibitor 462.96 (463), listed as RN277
[11] = inhibitor 1388.89 (1389), listed as RN277
[12] = inhibitor 4166.67 (4167), listed as RN277
[13] = inhibitor 12500, listed as RN277
[14] = inhibitor 0.21 (0.212), listed as RN341
[15] = inhibitor 0.64 (0.635), listed as RN341
[16] = inhibitor 1.91 (2), listed as RN341
[17] = inhibitor 5.72 (6), listed as RN341
[18] = inhibitor 17.15 (17), listed as RN341
[19] = inhibitor 51.44 (51), listed as RN341
[20] = inhibitor 154.32 (154), listed as RN341
[21] = inhibitor 462.96 (463), listed as RN341
[22] = inhibitor 1388.89 (1389), listed as RN341
[23] = inhibitor 4166.67 (4167), listed as RN341
[24] = inhibitor 12500, listed as RN341

% phosphorylation (LRRK2^RCKW; [3]): 60.4% and 59.2% and 60.0%
% phosphorylation (LRRK2^RCKW; [4]): 61.6% and 60.3% and 62.2%
% phosphorylation (LRRK2^RCKW; [5]): 60.4% and 59.2%
% phosphorylation (LRRK2^RCKW; [6]): 61.0% and 59.5% and 59.1%
% phosphorylation (LRRK2^RCKW; [7]): 52.8% and 50.7% and 48.4%
% phosphorylation (LRRK2^RCKW; [8]): 34.0% and 33.1% and 33.2%
% phosphorylation (LRRK2^RCKW; [9]): 18.1% and 19.7% and 20.2%
% phosphorylation (LRRK2^RCKW; [10]): 8.2% and 8.7% and 10.4%
% phosphorylation (LRRK2^RCKW; [11]): 5.3% and 5.2% and 5.4%
% phosphorylation (LRRK2^RCKW; [12]): 4.0% and 5.6%
% phosphorylation (LRRK2^RCKW; [13]): 4.6% and 3.7% and 4.4%
LRRK2RCKW activity (% control) (LRRK2^RCKW; inhibitor 0.64 nM): 102.03 % control
LRRK2RCKW activity (% control) (LRRK2^RCKW; inhibitor 5.72 nM): 99.57 % control
LRRK2RCKW activity (% control) (LRRK2^RCKW; inhibitor 17.15 nM): 84.23 % control
LRRK2RCKW activity (% control) (LRRK2^RCKW; inhibitor 51.44 nM): 55.63 % control
LRRK2RCKW activity (% control) (LRRK2^RCKW; inhibitor 154.32 nM): 32.20 % control
LRRK2RCKW activity (% control) (LRRK2^RCKW; inhibitor 462.96 nM): 15.20 % control
LRRK2RCKW activity (% control) (LRRK2^RCKW; inhibitor 1388.89 nM): 8.77 % control
IC50 (LRRK2^RCKW): 70 nM
Normalized (LRRK2^RCKW; [3]): 100.1 and 100.0 and 98.5
Normalized (LRRK2^RCKW; [4]): 102.0 and 101.9 and 102.2
Normalized (LRRK2^RCKW; [5]): 99.9 and 100.1 and 99.3
Normalized (LRRK2^RCKW; [6]): 100.9 and 100.6 and 97.0
Normalized (LRRK2^RCKW; [7]): 87.4 and 85.7 and 79.5
Normalized (LRRK2^RCKW; [8]): 56.4 and 55.8 and 54.6
Normalized (LRRK2^RCKW; [9]): 29.8 and 32.7 and 34.1
Normalized (LRRK2^RCKW; [10]): 13.5 and 14.4 and 17.6
Normalized (LRRK2^RCKW; [11]): 8.6 and 9.0
Normalized (LRRK2^RCKW; [12]): 6.6 and 9.5
Normalized (LRRK2^RCKW; [13]): 7.5 and 6.1
SMILES: Cc1ccc(-n2nc(C(C)(C)C)cc2NC(=O)Nc2cccc(-c3c[nH]c4nc(Cl)nc(N5CCOCC5)c34)c2)cc1 [Compound 30]

SMILES: CCSc1nc(NC)c2c(-c3cccc(NC(=O)Nc4cc(C(C)(C)C)nn4-c4ccc(C)cc4)c3)c[nH]c2n1 [Compound 32]
% phosphorylation (LRRK2^RCKW; [14]): 66.5% and 61.3% and 65.1%
% phosphorylation (LRRK2^RCKW; [15]): 67.4% and 62.2% and 63.1%
% phosphorylation (LRRK2^RCKW; [16]): 64.1% and 60.1% and 61.1%
% phosphorylation (LRRK2^RCKW; [17]): 63.8% and 59.4% and 61.3%
% phosphorylation (LRRK2^RCKW; [18]): 55.5% and 52.5% and 53.7%
% phosphorylation (LRRK2^RCKW; [19]): 47.7% and 41.6% and 46.5%
% phosphorylation (LRRK2^RCKW; [20]): 25.7% and 23.0% and 24.6%
% phosphorylation (LRRK2^RCKW; [21]): 11.0% and 11.8% and 10.3%
% phosphorylation (LRRK2^RCKW; [22]): 8.0% and 8.8% and 7.9%
% phosphorylation (LRRK2^RCKW; [23]): 5.7% and 6.7% and 6.1%
% phosphorylation (LRRK2^RCKW; [24]): 5.9% and 7.2% and 6.3%
LRRK2RCKW activity (% control) (LRRK2^RCKW; inhibitor 0.64 nM): 100.63 % control
LRRK2RCKW activity (% control) (LRRK2^RCKW; inhibitor 5.72 nM): 96.37 % control
LRRK2RCKW activity (% control) (LRRK2^RCKW; inhibitor 17.15 nM): 84.53 % control
LRRK2RCKW activity (% control) (LRRK2^RCKW; inhibitor 51.44 nM): 70.93 % control
LRRK2RCKW activity (% control) (LRRK2^RCKW; inhibitor 154.32 nM): 38.27 % control
LRRK2RCKW activity (% control) (LRRK2^RCKW; inhibitor 462.96 nM): 17.40 % control
LRRK2RCKW activity (% control) (LRRK2^RCKW; inhibitor 1388.89 nM): 12.93 % control
IC50 (LRRK2^RCKW): 110 nM
Normalized (LRRK2^RCKW; [14]): 99.7 and 99.1 and 103.7
Normalized (LRRK2^RCKW; [15]): 101.0 and 100.4 and 100.5
Normalized (LRRK2^RCKW; [16]): 96.1 and 97.0 and 97.3
Normalized (LRRK2^RCKW; [17]): 95.6 and 96.0 and 97.5
Normalized (LRRK2^RCKW; [18]): 83.2 and 84.9 and 85.6
Normalized (LRRK2^RCKW; [19]): 71.6 and 67.2 and 74.0
Normalized (LRRK2^RCKW; [20]): 38.5 and 37.1 and 39.2
Normalized (LRRK2^RCKW; [21]): 16.6 and 19.1 and 16.5
Normalized (LRRK2^RCKW; [22]): 12.0 and 14.2 and 12.6
Normalized (LRRK2^RCKW; [23]): 8.5 and 10.8 and 9.6
Normalized (LRRK2^RCKW; [24]): 8.9 and 11.6 and 10.1
Residual activity (% of control), CLK1 (350 wild-type kinases; Assay Conc. 1.0E-05 M): 54 % of control
Residual activity (% of control), CLK1 (350 wild-type kinases; Assay Conc. 1.0E-06 M): 86 % of control

dTm [1]: -0.02 K
dTm [2]: 1.81 K
SMILES: Cc1ccc(C(=O)Nc2ccc(CN3CCN(C)CC3)c(C(F)(F)F)c2)cc1C#Cc1c[nH]c2ncnc(N3CCOCC3)c12 [Compound 1]
